# Tested on: HT29 human colorectal adenocarcinoma cell line
# Test: cell proliferation assay (Cell Titer-Glo luminescent cell viability assay)
# Format: cell-based
# Details: HT-29, 72 h, read-out: pIC50 (converted)
# Outline: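 Cells grown in DMEM with 10% FBS and exposed to compounds for 72 h. Viability read by CellTiter-Glo luminescence, expressed as percentage of DMSO-treated cells.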
row,Compound,IC50 [nM]
1,"COc1cc(C(=O)NC2CCN(C)CC2)ccc1Nc1ncc2c(n1)N(C1CCCC1)CC1(CCC1)C(=O)N2C [Compound 179, 4-(9′-Cyclopentyl-5′-methyl-6′-oxo-5′,6′,8′,9′-tetrahydrospiro[cyclobutane-1,7′-pyrimido[4,5-b][1,4]diazepine]-2′-ylamino)-3-methoxy-N-(1-methylpiperidin-4-yl)benzamide]",< 1

# Same assay, conditions: HT-29, cell proliferative assay, HT29 cells, 72 hr treatment, values given as ranges, read-out: pIC50 (converted)
row,IC50 [nM],Compound
1,< 1,"COc1cc(C(=O)N[C@@H]2CCCNC2)ccc1Nc1ncc2c(n1)N(C1CCCCC1)CC1(CC1)C(=O)N2C [Compound 175, (R)-4-(9′-cyclohexyl-5′-methyl-6′-oxo-5′,6′,8′,9′-tetrahydrospiro [cyclopropane-1,7′-pyrimido[4,5-b][1,4]diazepine]-2′-ylamino)-3-methoxy-N-(piperidin-3-yl)benzamide]"
2,> 10,"CCN1CCC(NC(=O)c2ccc(Nc3ncc4c(n3)N(C3CCCCC3)CC3(CC3)C(=O)N4C)c(OC)c2)CC1 [Compound 176, 4-(9′-cyclohexyl-5′-methyl-6′-oxo-5′,6′,8′,9′-tetrahydrospiro[cyclopropane-1,7′-pyrimido[4,5-b][1,4]diazepine]-2′-ylamino)-N-(1-ethylpiperidin-4-yl)-3-methoxybenzamide]"
3,< 1,"COc1cc(C(=O)NC2CCN(C)CC2)ccc1Nc1ncc2c(n1)N(C1CCCC1C)CC1(CC1)C(=O)N2C (stereo not shown) [Compound 177, 3-methoxy-4-(5′-methyl-9′-(2-methylcyclopentyl)-6′-oxo-5′,6′,8′,9′-tetrahydrospiro[cyclopropane-1,7′-pyrimido[4,5-b][1,4]diazepine]-2′-ylamino)-N-(1-methylpiperidin-4-yl)benzamide]"
4,< 1,"COc1cc(C(=O)NN2CCN(C)CC2)ccc1Nc1ncc2c(n1)N(C1CCCC1)CC1(CCC1)C(=O)N2C [Compound 180, 4-(9′-cyclopentyl-5′-methyl-6′-oxo-5′,6′,8′,9′-tetrahydrospiro[cyclobutane-1,7′-pyrimido[4,5-b][1,4]diazepine]-2′-ylamino)-3-methoxy-N-(4-methylpiperazin-1-yl)benzamide]"
5,3.16 to 10,"COc1cc(C(=O)N[C@@H]2CCCNC2)ccc1Nc1ncc2c(n1)N(C1CCCC1)CC1(CCC1)C(=O)N2C [Compound 181, (R)-4-(9′-cyclopentyl-5′-methyl-6′-oxo-5′,6′,8′,9′-tetrahydrospiro[cyclobutane-1,7′-pyrimido[4,5-b][1,4]diazepine]-2′-ylamino)-3-methoxy-N-(piperidin-3-yl)benzamide]"
6,1 to 2.51,"COc1cc(C(=O)N[C@H]2CCCNC2)ccc1Nc1ncc2c(n1)N(C1CCCC1)CC1(CCC1)C(=O)N2C [Compound 182, (S)-4-(9′-cyclopentyl-5′-methyl-6′-oxo-5′,6′,8′,9′-tetrahydrospiro[cyclobutane-1,7′-pyrimido[4,5-b][1,4]diazepine]-2′-ylamino)-3-methoxy-N-(piperidin-3-yl)benzamide]"
7,3.16 to 10,"C=CCC1CN(C2CCCCC2)c2nc(Nc3ccc(C(=O)N[C@@H]4CCCNC4)cc3OC)ncc2N(C)C1=O (stereo partly drawn) [Compound 191, 4-(7-allyl-9-cyclohexyl-5-methyl-6-oxo-6,7,8,9-tetrahydro-5H-pyrimido[4,5-b][1,4]diazepin-2-ylamino)-3-methoxy-N-((R)-piperidin-3-yl)benzamide]"
8,> 10,"C=CCC1CN(C2CCCCC2)c2nc(Nc3ccc(C(=O)N[C@H]4CCCNC4)cc3OC)ncc2N(C)C1=O (stereo partly drawn) [Compound 192, 4-(7-allyl-9-cyclohexyl-5-methyl-6-oxo-6,7,8,9-tetrahydro-5H-pyrimido[4,5-b][1,4]diazepin-2-ylamino)-3-methoxy-N-((S)-piperidin-3-yl)benzamide]"
9,< 1,"C=CCC1CN(C2CCCCC2)c2nc(Nc3ccc(C(=O)N[C@H]4CCNC4)cc3OC)ncc2N(C)C1=O (stereo partly drawn) [Compound 194, 4-(7-allyl-9-cyclohexyl-5-methyl-6-oxo-6,7,8,9-tetrahydro-5H-pyrimido[4,5-b][1,4]diazepin-2-ylamino)-3-methoxy-N-((S)-pyrrolidin-3-yl)benzamide]"
10,< 1,"C=CC[C@H]1CN(C2CCCC2)c2nc(Nc3ccc(C(=O)NC4CN(C)C4)cc3OC)ncc2N(C)C1=O [Compound 196, (S)-4-(7-allyl-9-cyclopentyl-5-methyl-6-oxo-6,7,8,9-tetrahydro-5H-pyrimido[4,5-b][1,4]diazepin-2-ylamino)-3-methoxy-N-(1-methylazetidin-3-yl)benzamide]"
11,< 1,"C=CC[C@H]1CN(C2CCCC2)c2nc(Nc3ccc(C(=O)N[C@H]4CC[C@H](O)CC4)cc3OC)ncc2N(C)C1=O [Compound 197, 4-((S)-7-allyl-9-cyclopentyl-5-methyl-6-oxo-6,7,8,9-tetrahydro-5H-pyrimido[4,5-b][1,4]diazepin-2-ylamino)-N-((1R,4R)-4-hydroxycyclohexyl)-3-methoxybenzamide]"
12,< 1,"C=CC[C@H]1CN(C2CCCC2)c2nc(Nc3ccc(C(=O)N[C@H]4CCCN(C)C4)cc3OC)ncc2N(C)C1=O [Compound 198, 4-((S)-7-allyl-9-cyclopentyl-5-methyl-6-oxo-6,7,8,9-tetrahydro-5H-pyrimido[4,5-b][1,4]diazepin-2-ylamino)-3-methoxy-N-((S)-1-methylpiperidin-3-yl)benzamide]"
13,1 to 2.51,"C=CC[C@H]1CN(C2CCCC2)c2nc(Nc3ccc(C(=O)N[C@@H]4CCCNC4)cc3OC)ncc2N(C)C1=O [Compound 200, 4-((S)-7-allyl-9-cyclopentyl-5-methyl-6-oxo-6,7,8,9-tetrahydro-5H-pyrimido[4,5-b][1,4]diazepin-2-ylamino)-3-methoxy-N-((R)-piperidin-3-yl)benzamide]"
14,1 to 2.51,"C=CC[C@H]1CN(C2CCCC2)c2nc(Nc3ccc(C(=O)N[C@H]4CCCNC4)cc3OC)ncc2N(C)C1=O [Compound 201, 4-((S)-7-allyl-9-cyclopentyl-5-methyl-6-oxo-6,7,8,9-tetrahydro-5H-pyrimido[4,5-b][1,4]diazepin-2-ylamino)-3-methoxy-N-((S)-piperidin-3-yl)benzamide]"
15,1 to 2.51,"C=CC[C@H]1CN(C2CCCC2)c2nc(Nc3ccc(C(=O)N[C@@H]4CCNC4)cc3OC)ncc2N(C)C1=O [Compound 202, 4-((S)-7-allyl-9-cyclopentyl-5-methyl-6-oxo-6,7,8,9-tetrahydro-5H-pyrimido[4,5-b][1,4]diazepin-2-ylamino)-3-methoxy-N-((R)-pyrrolidin-3-yl)benzamide]"
16,1 to 2.51,"C=CC[C@H]1CN(C2CCCC2)c2nc(Nc3ccc(C(=O)N[C@H]4CCNC4)cc3OC)ncc2N(C)C1=O [Compound 203, 4-((S)-7-allyl-9-cyclopentyl-5-methyl-6-oxo-6,7,8,9-tetrahydro-5H-pyrimido[4,5-b][1,4]diazepin-2-ylamino)-3-methoxy-N-((S)-pyrrolidin-3-yl)benzamide]"
17,1 to 2.51,"C=CC[C@H]1CN(C2CCCC2)c2nc(Nc3ccc(C(=O)N[C@@H]4CCN(C)C4)cc3OC)ncc2N(C)C1=O [Compound 204, 4-((S)-7-allyl-9-cyclopentyl-5-methyl-6-oxo-6,7,8,9-tetrahydro-5H-pyrimido[4,5-b][1,4]diazepin-2-ylamino)-3-methoxy-N-((R)-1-methylpyrrolidin-3-yl)benzamide]"
18,< 1,"C=CC[C@H]1CN(C2CCCC2)c2nc(Nc3ccc(C(=O)N[C@H]4CCN(C)C4)cc3OC)ncc2N(C)C1=O [Compound 205, 4-((S)-7-allyl-9-cyclopentyl-5-methyl-6-oxo-6,7,8,9-tetrahydro-5H-pyrimido[4,5-b][1,4]diazepin-2-ylamino)-3-methoxy-N-((S)-1-methylpyrrolidin-3-yl)benzamide]"
